Values of other authors as cited in patent US20260335248A1, “ANTIFUNGAL AGENT ENCAPSULATED IN A LIPID NANOCRYSTAL FOR TREATING MUCORMYCOSIS” (MATINAS BIOPHARMA NANOTECHNOLOGIES, INC., priority 2022, published 2026).

Tested on: mucormycosis
Settings: Luo et al., 2013

Question: Which “fungal burdens in lungs and brain compared with placebo” value does the source give for CC[C@@H]([C@H](C)O)n1ncn(-c2ccc(N3CCN(c4ccc(OC[C@@H]5CO[C@@](Cn6cncn6)(c6ccc(F)cc6F)C5)cc4)CC3)cc2)c1=O [Posaconazole, posaconazole] here?
Answer: effective in reducing the fungal burdens in lungs and brain
